Measurements published in patent US20260091050A1, “ADVANTAGEOUS ANTI-HCV COMBINATION THERAPY” (Atea Pharmaceuticals, Inc., priority 2021, published 2026).
“And” between values parts separate entries of the source, which are not always exact repeats. Identical values can stand only once. Like-named read-outs stand apart in the source and are kept apart here.

Tests used:
[1] = Solubility in biorelevant test medias (water, SGF, FaSSIF, FeSSIF); details: for Appearance: solubility test; for Descriptive term: solubility
GT1, GT2, or GT3 HCV = test: 600 mg QD for 7 days in Child-Pugh A cirrhotic patients with GT1, GT2 or GT3 HCV (Part E); type: in vivo, human; details: for Mean Max Reduction / Mean Reduction After 24 hours / HCV RNA < LOQ (15 IU/mL): 600 mg of Compound 1-A; for HCV RNA < LOQ (15 IU/mL): subjects/total
Procedure: Doses were administered as the Compound 1-A salt base. The free base Compound 1 equivalent is often given in parenthesis. […]
(§1) HCV-infected patients were treatment-naïve with HCV RNA ≥5 log 10 IU/mL. HCV RNA was quantified using COBAS® AmpliPrep TaqMAN® v2.0 with LLQ of 15 IU/mL. Plasma drug levels were measured using LC-MS/MS. […] Mean ages of enrolled subjects were 44, 39, and 56 years in the non-cirrhotic GT1b 600 mg dose cohort, non-cirrhotic GT3 cohort, and the cirrhotic cohort, respectively.

GT3 HCV = test: 600 mg QD for 7 days in non-cirrhotic GT3 HCV-infected patients (Part D); type: in vivo, human
Procedure: (§2) Doses were administered as the Compound 1-A salt base. The free base Compound 1 equivalent is often given in parenthesis.
(§3) Part C was a randomized, double-blind, placebo-controlled MAD study divided into three cohorts. […] The dose escalation only proceeded following satisfactory review of the data.
as §1

GT1 HCV = test: Multiple dose study, 7 days QD, non-cirrhotic GT1 HCV-infected patients (Part C); type: in vivo, human
Procedure: as §2, §3, §1

HCV [2] = details: cited from earlier work; for viral load reduction, individual: cirrhotic
[3] = Accelerated stability (40 ± 2° C./75 ± 5% RH) of Compound 1-A over 6 months; type: physicochemical
Procedure: (§4) Three conditions were tested: accelerated stability (40±2° C./[…]) over a 6-month time period, ambient stability (25±2° C./[…]) over a 9-month period, and stability under refrigerator conditions (5±3° C.) over a 9-month time period. The results for accelerated stability, ambient stability, and refrigerator conditions are shown in Table 23, Table 24, and Table 25, respectively.

[4] = Plasma levels of Compound 1 and metabolites after single oral dose of Compound 1-A, rat; type: in vivo; details: 500 mg/kg single oral dose
[5] = Ambient stability (25 ± 2° C./60 ± 5% RH) of Compound 1-A over 9 months; type: physicochemical
Procedure: as §4

[6] = Plasma levels of Compound 1 and metabolites after single oral dose of Compound 1-A, dog; type: in vivo
[7] = Heart and liver tissue levels of active triphosphate 4 hours after oral Compound 1-A, monkey; type: in vivo; details: 4 hours after single oral dose
Procedure: (§5) High levels of the active TP were measured in the liver of all species tested.

HCV [8] = test: Emax model: HCV RNA reduction on day 7 against AUC of metabolite 1-7; type: in vivo, human; details: after 7 days QD dosing, metabolite 1-7 exposures ≥2000 ng/mL×h
[9] = Heart and liver tissue levels of active triphosphate 4 hours after oral Compound 1-A, dog; type: in vivo; details: 4 hours after single oral dose
Procedure: as §5

[10] = 600 mg of Compound 1-A, GT3, non-cirrhotic (n = 6)
[11] = 600 mg of Compound 1-A, GT1, non-cirrhotic (n = 6)
[12] = 25 ± 2° C./60 ± 5% RH, 1st month
[13] = 25 ± 2° C./60 ± 5% RH, 3rd month
[14] = 25 ± 2° C./60 ± 5% RH, 6th month
[15] = 25 ± 2° C./60 ± 5% RH, 9th month
[16] = Dog, 30 mg/kg single oral dose, plasma

CNc1nc(N)nc2c1ncn2[C@@H]1O[C@H](CO[P@@](=O)(N[C@@H](C)C(=O)OC(C)C)Oc2ccccc2)[C@@H](O)[C@@]1(C)F [Compound 1-A, isopropyl ((S)-(((2R,3R,4R,5R)-5-(2-amino-6-(methylamino)-9H-purin-9-yl)-4-fluoro-3-hydroxy-4-methyltetrahydrofuran-2-yl)methoxy) (phenoxy)phosphoryl)-L-alaninate hemisulfate]
Appearance ([1]; FaSSIF): Turbid | Appearance ([1]; FeSSIF): Turbid | Appearance ([1]; SGF): Turbid | Appearance ([1]; Water): Turbid | Descriptive term ([1]; FaSSIF): Slightly | Descriptive term ([1]; FeSSIF): Slightly | Descriptive term ([1]; SGF): Soluble | Descriptive term ([1]; Water): Soluble | mean maximum HCV RNA reduction (GT1, GT2, or GT3 HCV; 600 mg QD for 7 days, CPA cirrhotic): 4.4 log10 IU/mL and 4.6 log10 IU/mL | Mean Max Reduction (GT1, GT2, or GT3 HCV; GT1, Child-Pugh A (n = 3)): 4.2 log10 IU/mL | Mean Reduction After 24 hours (GT1, GT2, or GT3 HCV; GT1, Child-Pugh A (n = 3)): 2.4 log10 IU/mL | HCV RNA < LOQ (15 IU/mL) (GT1, GT2, or GT3 HCV; GT1, Child-Pugh A (n = 3)): 1/3 | Mean Max Reduction (GT1, GT2, or GT3 HCV; GT3, Child-Pugh A (n = 1)): 4.8 log10 IU/mL | Mean Reduction After 24 hours (GT1, GT2, or GT3 HCV; GT3, Child-Pugh A (n = 1)): 2.2 log10 IU/mL | HCV RNA < LOQ (15 IU/mL) (GT1, GT2, or GT3 HCV; GT3, Child-Pugh A (n = 1)): 0/1 | HCV RNA reduction (GT1, GT2, or GT3 HCV; cirrhotic GT1, within the first 24 hours): 2.4 log10 | HCV RNA reduction (GT1, GT2, or GT3 HCV; cirrhotic GT3, within the first 24 hours): 2.2 log10 | mean maximum HCV RNA reduction (GT3 HCV; 600 mg QD for 7 days, non-cirrhotic GT3): 4.6 log10 IU/mL and 4.5 log10 IU/mL | Mean Max Reduction (GT3 HCV; [10]): 4.5 log10 IU/mL | Mean Reduction After 24 hours (GT3 HCV; [10]): 2.4 log10 IU/mL | HCV RNA < LOQ (15 IU/mL) (GT3 HCV; 600 mg of Compound 1-A, GT3, non-cirrhotic (n = 6), subjects/total): 1/6 | mean HCV RNA reduction (GT3 HCV; after the first dose of 600 mg, non-cirrhotic GT3): 2.4 log10 IU/mL | subjects achieving HCV RNA <LOQ (GT1 HCV; 600 mg QD, non-cirrhotic GT1b, LOQ=15 IU/mL): 50% | Mean Max Reduction (GT1 HCV; [11]): 4.4 log10 IU/mL | Mean Reduction After 24 hours (GT1 HCV; [11]): 2.1 log10 IU/mL | HCV RNA < LOQ (15 IU/mL) (GT1 HCV; 600 mg of Compound 1-A, GT1, non-cirrhotic (n = 6), subjects/total): 3/6 | viral load reduction (HCV [2]; cirrhotic participants): 4.6 log 10 IU/mL | viral load reduction, individual (HCV [2]; GT1b, listed as bemnifosbuvir): 4.0 log 10 IU/mL (2×) and 4.5 log 10 IU/mL | viral load reduction, individual (HCV [2]; GT2): 5.0 log 10 IU/mL | viral load reduction, individual (HCV [2]; GT3, listed as bemnifosbuvir): 4.8 log 10 IU/mL and 5.2 log 10 IU/mL | viral load reduction (HCV [2]; non-cirrhotic participants): 4.5 log 10 IU/mL | Appearance ([3]; 0 month): White | Assay ([3]; 0 month): 98.8% | IR ([3]; 0 month): correspond | Related Substance 1 Any other single impurity ([3]; 0 month): 0.01% | Related Substance 1 Total Impurities ([3]; 0 month): 0.01% | Water ([3]; 0 month): 0.45% | Appearance ([3]; 1st month): White | Assay ([3]; 1st month): 101.5% | Related Substance 1 Any other single impurity ([3]; 1st month): 0.02% | Related Substance 1 Total Impurities ([3]; 1st month): 0.02% | Water ([3]; 1st month): 0.21% | Appearance ([3]; 3rd month): White | Assay ([3]; 3rd month): 99.6% | IR ([3]; 3rd month): correspond | Related Substance 1 Any other single impurity ([3]; 3rd month): 0.01% | Related Substance 1 Total Impurities ([3]; 3rd month): 0.02% | Water ([3]; 3rd month): 0.36% | Appearance ([3]; 6th month): White | Assay ([3]; 6th month): 99.5% | IR ([3]; 6th month): correspond | Related Substance 1 Any other single impurity ([3]; 6th month): 0.05% | Related Substance 1 Impurity F ([3]; 6th month): 0.01% | Related Substance 1 Total Impurities ([3]; 6th month): 0.08% | Related Substance 2 Impurity G ([3]; 6th month): no detection | Water ([3]; 6th month): 0.41% | Chemical stability (overall conclusion) ([3]; accelerated, ambient and refrigerator studies): very chemically stable | Compound 1 AUC0-last [4]: 60.9 ng·h/mL | Compound 1 Cmax [4]: 70.5 ng/mL | Compound 1 Tmax [4]: 15 min | Appearance ([5]; 25 ± 2° C./60 ± 5% RH, 0 month): White | Assay ([5]; 25 ± 2° C./60 ± 5% RH, 0 month): 98.8% | IR ([5]; 25 ± 2° C./60 ± 5% RH, 0 month): correspond | Related Substance 1 Any other single impurity ([5]; 25 ± 2° C./60 ± 5% RH, 0 month): 0.01% | Related Substance 1 Total Impurities ([5]; 25 ± 2° C./60 ± 5% RH, 0 month): 0.01% | Water ([5]; 25 ± 2° C./60 ± 5% RH, 0 month): 0.45% | Appearance [5, 12]: White | Assay [5, 12]: 101.1% | Related Substance 1 Any other single impurity [5, 12]: 0.01% | Related Substance 1 Total Impurities [5, 12]: 0.02% | Water [5, 12]: 0.19% | Appearance [5, 13]: White | Assay [5, 13]: 99.6% | IR [5, 13]: correspond | Related Substance 1 Any other single impurity [5, 13]: 0.03% | Related Substance 1 Impurity B [5, 13]: 0.03% | Related Substance 1 Impurity F [5, 13]: 0.02% | Related Substance 1 Total Impurities [5, 13]: 0.11% | Water [5, 13]: 0.29% | Appearance [5, 14]: White solid | Assay [5, 14]: 99.7% | IR [5, 14]: correspond | Related Substance 1 Any other single impurity [5, 14]: 0.02% | Related Substance 1 Impurity F [5, 14]: 0.01% | Related Substance 1 Total Impurities [5, 14]: 0.05% | Water [5, 14]: 0.46% | Appearance [5, 15]: Off-white | Assay [5, 15]: 100.9% | IR [5, 15]: correspond | Related Substance 1 Any other single impurity [5, 15]: 0.02% | Related Substance 1 Total Impurities [5, 15]: 0.02% | Water [5, 15]: 0.20% | percentage of water ([5]; after 9 months): 0.2000 | total related substance 1 impurities ([5]; after 9 months): 0.02% | Compound 1 Cmax [6, 16]: 1530 ng/mL | Tmax [6, 16]: 15 to 60 min | Compound 1 Tmax ([6]; Dog, 100 mg/kg single oral dose, plasma): 30 to 60 min | vomiting (animals affected) ([6]; dogs, high dose group): 5/5 | active TP (metabolite 1-6) level in heart [7]: unquantifiable levels | active TP (metabolite 1-6) level in liver [7]: High levels | predicted maximal viral load reduction (HCV [8]): at least 4 log units | active TP (metabolite 1-6) level in heart [9]: Relatively low levels | active TP (metabolite 1-6) level in liver [9]: High levels
